Consider one molecule from article PMC6508677, “Identification of druggable small molecule antagonists of the Plasmodium falciparum hexose transporter PfHT and assessment of ligand access to the glucose permeation pathway via FLAG-mediated protein engineering” (PLoS ONE, 2019).

This assay concerns the target T1, hGLUT5 (Homo sapiens, UniProt P22732).
T1 construct: expressed in transfected cells; host or cells: HEK293 (HEK293-FLIP); native hGLUT1 not knocked down in this line
T1 sequence (P22732 1-501): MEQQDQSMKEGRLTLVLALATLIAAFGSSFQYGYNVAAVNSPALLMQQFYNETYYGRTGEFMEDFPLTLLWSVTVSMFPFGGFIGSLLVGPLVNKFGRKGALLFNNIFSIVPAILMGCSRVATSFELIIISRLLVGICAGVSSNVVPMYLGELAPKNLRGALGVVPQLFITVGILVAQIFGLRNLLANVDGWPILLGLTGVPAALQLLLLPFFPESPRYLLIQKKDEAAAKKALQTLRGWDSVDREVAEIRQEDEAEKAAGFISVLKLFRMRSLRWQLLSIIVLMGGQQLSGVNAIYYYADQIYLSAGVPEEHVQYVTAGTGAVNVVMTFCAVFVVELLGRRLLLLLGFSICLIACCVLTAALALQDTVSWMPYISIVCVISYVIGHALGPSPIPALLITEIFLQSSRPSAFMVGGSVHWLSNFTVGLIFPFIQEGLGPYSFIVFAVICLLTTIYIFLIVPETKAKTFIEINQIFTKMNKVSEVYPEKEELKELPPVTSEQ
Put plainly: [3H]-D-fructose uptake by HEK293 cells overexpressing GLUT5. It is filed as cell-based. The text has this:
Generation of HEK293 cells overexpressing PfHT and human GLUTs 1–4 were described elsewhere. Briefly, HEK293 cells were transfected with pcDNA3.1 FLII12Pglu-7006 (Addgene), containing the fluorescence resonance energy transfer (FRET) glucose sensor (HEK293-FLIP) and PfHT, human GLUT1 (hGLUT1), hGLUT2, hGLUT3, hGLUT4, hGLUT5 or hGLUT8 using Optifect (Life Technologies) according to manufacturer’s specifications. To increase retention of GLUT8 at the plasma membrane, the dileucine sorting signal E^7E^8XXXLL was modified to R^7R^8XXXLL as described in [17]. Stable transfectants were selected for G418 and hygromycin resistance to select for FRET sensor and hexose transporter, respectively. HEK293-FLIP cells were also used to generate cells stably transfected with FLAG-tagged PfHT (FTPfHT). FLAG tag ([…]) followed by a triple glycine linker and a tobacco etch virus (TEV) protease site (ENLYFQS) followed by a triple glycine linker was added to the N-terminus of PfHT via PCR [18] using Phusion Hot Start II High-Fidelity DNA Polymerase (Fisher Scientific). Single clones were selected by comparing their abilities to transport glucose as assayed via FRET and radiolabeled hexose uptake. In all cell lines, except for HEK293 cells overexpressing hGLUT1 and hGLUT5, native hGLUT1 was knocked down using shRNA as described elsewhere. Transcript levels of the individual GLUTs expressed in each cell line are as described in [13, 15] and in S1 Fig.
Glucose uptake by P. falciparum was performed essentially as described. P. falciparum strain 3D7 was cultured in 100 mm tissue culture dishes (Techno Plastic Products) in a 2% suspension of human erythrocytes and RPMI 1640 medium until reaching > 7.5% parasitemia. Cells were pelleted via centrifugation and resuspended in RPMI 1640 medium. To determine the uptake of radiolabeled glucose into the parasite, parasites were isolated from infected erythrocytes by permeablization with saponin (0.05 w/v), followed by centrifugation, aspiration of supernatant and washing of the pellet 3X with saline solution (135 mM NaCl, 2 mM KCl, 25 mM HEPES, 0.2 mM glucose and 1 mM MgCl2; pH 7.1) to remove cellular debris. WU-1 or DMSO vehicle were added to 100 μl parasites (resuspended in saline) 5 min prior to the addition of 100 μl [^14C]2-DOG (0.2- μCi/ml final concentration). 2-DG uptake was stopped after 2 min by layering the entire reaction over 300 μl of an oil mixture (5:4 mix of dibutyl phthalate / dinonyl phthalate) in Eppendorf tubes and centrifuged at 15,850 × g for 2 mins. The ratio of the estimated intracellular concentration of radiolabel relative to the extracellular concentration were calculated as described. Uptake of radiolabeled hexose into HEK293 cells was measured in glucose-free HBSS as described previously. Briefly, cells were plated at 400,000 cells/well overnight at 37°C in 24-well plates pre-treated with PEI. After 30-min incubation at 37°C in glucose-free HBSS in the presence of vehicle or increasing concentrations of compound, 2-DG uptake was measured in glucose-free HBSS for 4 min at 37°C. Cultures were washed in ice-cold 1X PBS and lysed in 0.1% Triton X-100 in 1X PBS. Radiolabeled hexose uptake was determined by liquid scintillation counting (Ultima Gold, Thermo Fisher) and normalized to total protein per well. Uptake data are plotted as percent uptake relative to vehicle-treated cells. Kinetic analyses were performed using the indicated concentrations of substrate and WU-1, with quenching of uptake after 1 min incubation. Incubation times had been previously determined as being in the linear range of time-dependent radiolabeled hexose uptake (2 min for 2-DG uptake into freed parasites; 2 and 4 min for D-Frc and 2-DG uptake HEK cell lines, respectively). Data were fit by least squares nonlinear regression analysis using GraphPad Prism 6.0 software.

On to `Cc1ccc(S(=O)(=O)CCNC(=O)c2c(-c3c(Cl)cccc3Cl)noc2C)cc1` [WU-1, 3-(2,6-dichlorophenyl)-5-methyl-N-[2-(4-methylbenzenesulfonyl)ethyl]-1,2-oxazole-4-carboxamide], for which the “IC50 (µM)” value (GLUT5, D-frc Uptake) was “ambiguous”. Further, under “GLUT5 cell line”, the “IC50, D-fructose (Frc) uptake” value is “n.i”. Further, the remaining activity at 0.001 µM (HEK293, 2 min, GLUT5, concentration 0.001 µM, read-out: D-frc Uptake AVE) turned out to be 100%. In addition, the remaining activity at 0.3125 µM (HEK293, 2 min, GLUT5, concentration 0.3125 µM, read-out: D-frc Uptake AVE) was determined as 78.1%. Also, the remaining activity at 0.625 µM (HEK293, 2 min, GLUT5, concentration 0.6250 µM, read-out: D-frc Uptake AVE) was determined as 82.9%. The remaining activity at 1.25 µM (HEK293, 2 min, GLUT5, concentration 1.2500 µM, read-out: D-frc Uptake AVE) was found to be 96.7%. Also, the remaining activity at 2.5 µM (HEK293, 2 min, GLUT5, concentration 2.5000 µM, read-out: D-frc Uptake AVE) is 102%. Besides, the remaining activity at 5 µM (HEK293, 2 min, GLUT5, concentration 5 µM, read-out: D-frc Uptake AVE) came out at 89.8%. Besides, where the note is “HEK293, 2 min, GLUT5, concentration 10 µM, read-out: D-frc Uptake AVE”, the remaining activity at 10 µM was 87.6%. For the same molecule, where the note is “HEK293, 2 min, GLUT5, concentration 20 µM, read-out: D-frc Uptake AVE”, the remaining activity at 20 µM came out at 103%. Moreover, for the setting “HEK293, 2 min, GLUT5, concentration 40 µM, read-out: D-frc Uptake AVE”, the remaining activity at 40 µM was determined as 108%. Moreover, the remaining activity at 80 µM (HEK293, 2 min, GLUT5, concentration 80 µM, read-out: D-frc Uptake AVE) is 110%. For the same molecule, the remaining activity at 160 µM (HEK293, 2 min, GLUT5, concentration 160 µM, read-out: D-frc Uptake AVE) was 111%. Moreover, the remaining activity at 225 µM (HEK293, 2 min, GLUT5, concentration 225 µM, read-out: D-frc Uptake AVE) was found to be 125%. The “Selectivity Index (PfHT over GLUT5), Frc” value (calculated from IC50s) is “n.i”.
